From US8592435B2, “Nitrogen-containing six-membered aromatic ring derivatives and pharmaceutical products containing the same” (Daiichi Sankyo Company, Limited, priority 2007, dated 2013)

Legend:
chemokine receptor CCR3 = target: T1, chemokine receptor CCR3 (Homo sapiens, UniProt P51677); experiment: Affinity to chemokine receptor CCR3; type: binding; conditions: at a concentration of 10 μM
T1 sequence (P51677 1-355): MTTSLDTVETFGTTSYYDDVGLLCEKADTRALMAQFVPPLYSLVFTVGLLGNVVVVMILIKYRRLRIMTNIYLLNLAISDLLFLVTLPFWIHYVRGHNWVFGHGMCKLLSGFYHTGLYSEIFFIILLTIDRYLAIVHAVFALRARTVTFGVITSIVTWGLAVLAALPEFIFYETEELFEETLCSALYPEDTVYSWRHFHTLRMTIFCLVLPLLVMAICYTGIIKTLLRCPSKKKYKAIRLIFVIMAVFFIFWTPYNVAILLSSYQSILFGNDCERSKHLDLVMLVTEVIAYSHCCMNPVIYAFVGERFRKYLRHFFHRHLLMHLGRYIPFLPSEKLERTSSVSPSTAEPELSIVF
From the text: Although the compounds of the present invention are novel compounds, compounds having a partly similar skeleton are described, for example, in Published Japanese Translation of PCT International Application No. 2003-507456, WO 01/79170 and WO 00/23076.

[1] = Repeated oral administration toxicity in rats; type: in vivo; conditions: orally administered repeatedly once a day for one week, 150 mg/kg/day
[2] = tested on: critical limb ischemia model (left femoral artery excised); experiment: Test Example 4: lower limb ischemia (critical limb ischemia) model in mice; type: in vivo, Balb/c mice; conditions: oral once daily 0.1 or 1.0 mg/kg for 10 days from femoral artery excision, vs Vehicle
Experimental: According to the method of Ichiro Masaki [Circ Res. 90; 966-973 (2002)], the left femoral artery of Balb/c mice was excised to establish a model of critical limb ischemia (n=29 to 30).
Test compounds used were Example Compounds 65, 92, 114, 130, 135 and 136, each of which was orally administered once daily at a dose of 0.1 mg/kg or 1.0 mg/kg for 10 days starting from the day of femoral artery excision.
The results are shown in FIGS. 1 to 6 in which FIGS. 1, 2, 3, 4, 5 and 6 show the results of Example Compounds 65, 92, 114, 130, 135 and 136, respectively.
In the figures, a thick solid line indicates a Vehicle group, a thin dotted line indicates a group administered 0.1 mg/kg/day of each compound, and a thin solid line indicates a group administered 1.0 mg/kg/day of each compound.
*: P<0.05, **: P<0.01, ***: P<0.001 vs Vehicle by Wilcoxon's test.

[3] = tested on: myocardial infarction model (LAD occluded); experiment: Test Example 5: myocardial infarction model in rats; type: in vivo, Slc:SD rats; conditions: oral once daily 0.01, 0.1 or 1.0 mg/kg for 28 days, 4 weeks after myocardial infarction
Experimental: According to the method of Masakatsu Wakeno et al. [Circulation 114: 1923-1932 (2006)], 10-week-old male Slc:SD rats were anesthetized with pentobarbital and cut open in the chest area. The left anterior descending coronary artery (LAD) was completely occluded to establish a myocardial infarction model. Sham group underwent only thoracic surgical procedure.
The test compound used was Example Compound 65, which was orally administered once daily at a dose of 0.01 mg/kg, 0.1 mg/kg or 1.0 mg/kg for 28 days starting from the day of establishment of myocardial infarction model (after awakening from anesthesia).
4 weeks after establishing myocardial infarction, animals were anesthetized with pentobarbital and monitored for their cardiachemodynamics using a mirror catheter. Subsequently, blood samples were collected from the abdominal aorta, wet lung weight was measured, and plasma BNP levels after arterial blood sampling were measured (RIA).
FIGS. 7, 8, 9 and 10 show the results of LVEDP, LVdP/dt max, lung weight and plasma […] levels, respectively.
#: P<0.05, ##: P<0.01 between sham and control by Student's t-test
*: P<0.05, **: P<0.01: vs control by Dunnett's test

## Cc1nc(OCC(=O)N(C)C2CCN(Cc3ccccc3)CC2)nc(C)c1N [Compound 65, 2-(5-amino-4,6-dimethylpyrimidine-2-yloxy)-N-(1-benzylpiperidine-4-yl)-N-methylacetamide]
Chemokine receptor CCR3
  affinity to chemokine receptor CCR3: 0.0%
[1]
  toxicity: did not exhibit toxicity
[2]
  survival rate of lower limb: increased survival rate
[3]
  end-diastolic pressure (LVEDP): suppressed
  maximum left ventricular contraction and diastolic velocity (LVdP/dt max): suppressed the decrease
  wet lung weight: suppressed
[3]; RIA
  plasma BNP levels: suppressed the increase
